Test results taken from patent US10995091B2 (Proximagen, LLC, priority 2010, dated 2021).

Target: T1, Human CXCR4 transfected HEK293 cells (Homo sapiens, UniProt P61073)
T1 construct: expressed in transfected cells; host or cells: HEK293
Assay: CXCR4 functional calcium assay (calcium flux FLIPR, antagonism of SDF1 response)
Assay type: cell-based
Details: CXCR4 functional activity, antagonism of SDF1 (EC50 concentration), read-out: CXCR4 fKi
Description: The functional activity of test compounds was routinely tested by measuring the ability of compounds to antagonize CXCR4 activity in a dose dependent manner, using a calcium flux Fluorescent Imaging Plate Reader FLIPR assay.
Human CXCR4 transfected HEK293 cells were cultured in Dulbecco's modified Eagles medium containing 4.5 g/L glucose, L-glutamine, pyruvate, 50 µg/mL Geneticin and 250 µg/mL hygromycin B and maintained at 37° C. in a humidified, 5% CO2 controlled atmosphere. Subcultivations were performed every 2-3 d.
At confluence the cells were lifted using Ca^2+ and Mg^2+ free PBS/0.02% (w/v) EDTA, spun at 1000 rpm for 3 min and resuspended at 2.5×10^5 cells/mL. Cells were plated into a 384 well, poly-d-lysine coated, black with clear bottomed plate (Becton Dickinson) at 7500 cells/well. The plates were incubated overnight at 37° C. under 5% CO2. On the day of the experiment the cells were washed with incubation Buffer (HBSS containing 2.5 mM probenecid, 0.1% w/v BSA and 10 mM HEPES, pH 7.4 at 37° C.). After washing, the cells were loaded with Fluo-4 AM dye (Molecular probes) at 2 µM containing 0.48 µg/mL pluronic acid for 60 min at 37° C. under 5% CO2. After thorough washing with incubation buffer the cells were preincubated for 10 min at 37° C. before use.
A combined agonist/antagonist protocol was used to measure changes in intracellular calcium concentration. Compound (antagonist) was added to the cell plate using a Fluorometric Imaging Plate Reader (FLIPR) (Molecular Devices, Sunnyvale, Calif., USA). Basal fluorescence was recorded every second for 10 seconds prior to compound addition (10 μl) and fluorescence recorded every second for 1 min then every 6 seconds for a further 1 min. SDF1[…] (EC50 concentration) was then added using the FLIPR and fluorescence recorded as described above. Curve-fitting and parameter estimation were carried out using GraphPad Prism 4.0 (GraphPad Software Inc., San Diego, Calif.).

T1 sequence (P61073 whole entry): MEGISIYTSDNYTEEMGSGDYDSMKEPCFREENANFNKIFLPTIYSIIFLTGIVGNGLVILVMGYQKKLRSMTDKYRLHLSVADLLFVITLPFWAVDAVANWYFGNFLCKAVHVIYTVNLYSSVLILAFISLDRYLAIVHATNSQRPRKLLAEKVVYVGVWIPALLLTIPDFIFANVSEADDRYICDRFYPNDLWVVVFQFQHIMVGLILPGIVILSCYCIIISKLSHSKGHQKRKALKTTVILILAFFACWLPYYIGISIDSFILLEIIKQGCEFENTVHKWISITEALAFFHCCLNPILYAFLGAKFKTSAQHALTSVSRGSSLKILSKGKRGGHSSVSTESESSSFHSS

Row | Ki | Structure (SMILES)
1 | 100 to 500 nM | CC(C)CCNC(=O)c1cccc(N2CCCN(C3CCN(Cc4ccccc4Cl)CC3)CC2)n1 [Example 49, 6-(4-{1-[(2-Chlorophenyl)methyl]piperidin-4-yl}-1,4-diazepan-1-yl)-N-(3-methylbutyl)pyridine-2-carboxamide]
2 | 100 to 500 nM | COCCNC(=O)c1cccc(N2CCCN(C3CCN(Cc4ccccc4Cl)CC3)CC2)n1 [Example 50, 6-(4-{1-[(2-Chlorophenyl)methyl]piperidin-4-yl}-1,4-diazepan-1-yl)-N-(2-methoxyethyl)pyridine-2-carboxamide]
3 | 20 to 100 nM | O=C(NC[C@H]1CCCO1)c1cccc(N2CCCN(C3CCN(Cc4ccccc4Cl)CC3)CC2)n1 [Example 51, 6-(4-{1-[(2-Chlorophenyl)methyl]piperidin-4-yl}-1,4-diazepan-1-yl)-N-[(2R)-oxolan-2-ylmethyl]pyridine-2-carboxamide]
4 | 20 to 100 nM | O=C(NC1CCOCC1)c1cccc(N2CCCN(C3CCN(Cc4ccccc4Cl)CC3)CC2)n1 [Example 52, 6-(4-{1-[(2-Chlorophenyl)methyl]piperidin-4-yl}-1,4-diazepan-1-yl)-N-(oxan-4-yl)pyridine-2-carboxamide]
5 | 20 to 100 nM | O=C(Nc1cccnc1)c1cccc(N2CCCN(C3CCN(Cc4ccccc4Cl)CC3)CC2)n1 [Example 53]
6 | < 20 nM | O=C(Nc1ccncc1)c1cccc(N2CCCN(C3CCN(Cc4ccccc4Cl)CC3)CC2)n1 [Example 54, 6-(4-{1-[(2-Chlorophenyl)methyl]piperidin-4-yl}-1,4-diazepan-1-yl)-N-(pyridine-4-yl)pyridine-2-carboxamide]
7 | 20 to 100 nM | O=C(NCc1cccnc1)c1cccc(N2CCCN(C3CCN(Cc4ccccc4Cl)CC3)CC2)n1 [Example 55, 6-(4-{1-[(2-Chlorophenyl)methyl]piperidin-4-yl}-1,4-diazepan-1-yl)-N-(pyridine-3-ylmethyl)pyridine-2-carboxamide]
8 | < 20 nM | O=C(NCc1ccncc1)c1cccc(N2CCCN(C3CCN(Cc4ccccc4Cl)CC3)CC2)n1 [Example 56, 6-(4-{1-[(2-Chlorophenyl)methyl]piperidin-4-yl}-1,4-diazepan-1-yl)-N-(pyridine-4-ylmethyl)pyridine-2-carboxamide]
9 | 20 to 100 nM | O=C(NCc1ncco1)c1cccc(N2CCCN(C3CCN(Cc4ccccc4Cl)CC3)CC2)n1 [Example 57, 6-(4-{1-[(2-Chlorophenyl)methyl]piperidin-4-yl}-1,4-diazepan-1-yl)-N-(1,3-oxazol-2-ylmethyl)pyridine-2-carboxamide]
10 | 100 to 500 nM | O=C(NCc1cocn1)c1cccc(N2CCCN(C3CCN(Cc4ccccc4Cl)CC3)CC2)n1 [Example 58, 6-(4-{1-[(2-Chlorophenyl)methyl]piperidin-4-yl}-1,4-diazepan-1-yl)-N-(1,3-oxazol-4-ylmethyl)pyridine-2-carboxamide]
11 | 100 to 500 nM | C[C@H](c1ccccc1)N1CCC(N2CCCN(c3cccc(C(=O)NCC4CC4)n3)CC2)CC1 [Example 74, N-(Cyclopropylmethyl)-6-(4-{1-[(1R)-1-phenylethyl]piperidin-4-yl}-1,4-diazepan-1-yl)pyridine-2-carboxamide]
12 | 20 to 100 nM | O=C(NCC1CC1)c1cccc(N2CCCN(C3CCN([C@H]4CCc5ccccc54)CC3)CC2)n1 [Example 77, N-(Cyclopropylmethyl)-6-(4-{1-[(1S)-2,3-dihydro-1H-inden-1-yl]piperidin-4-yl}-1,4-diazepan-1-yl)pyridine-2-carboxamide]
13 | < 20 nM | CC[C@@H](C)N1CCC(N2CCCN(c3cccc(C(=O)Nc4ccncc4)n3)CC2)CC1 [Example 78, 6-(4-{1-[(2R)-Butan-2-yl]piperidin-4-yl}-1,4-diazepan-1-yl)-N-(pyridine-4-yl)pyridine-2-carboxamide]
14 | < 20 nM | CC[C@H](C)N1CCC(N2CCCN(c3cccc(C(=O)Nc4ccncc4)n3)CC2)CC1 [Example 79, 6-(4-{1-[(2S)-Butan-2-yl]piperidin-4-yl}-1,4-diazepan-1-yl)-N-(pyridine-4-yl)pyridine-2-carboxamide]

Further lines, the molecule ahead of its results:

Row | Structure (SMILES) | Ki
15 | O=C(NCC1CC1)c1cccc(N2CCCN(C3CCN(C(CF)CF)CC3)CC2)n1 [Example 59, N-(Cyclopropylmethyl)-6-{4-[1-(1,3-difluoropropan-2-yl)piperidin-4-yl]-1,4-diazepan-1-yl}pyridine-2-carboxamide] | 100 to 500 nM
16 | CCN1CCC(N2CCCN(c3cccc(C(=O)NCC4CC4)n3)CC2)CC1 [Example 60, N-(Cyclopropylmethyl)-6-[4-(1-ethylpiperidin-4-yl)-1,4-diazepan-1-yl]pyridine-2-carboxamide] | 500 to 1000 nM
17 | CCCN1CCC(N2CCCN(c3cccc(C(=O)NCC4CC4)n3)CC2)CC1 [Example 61, N-(Cyclopropylmethyl)-6-[4-(1-propylpiperidin-4-yl)-1,4-diazepan-1-yl]pyridine-2-carboxamide] | 100 to 500 nM
18 | O=C(NCC1CC1)c1cccc(N2CCCN(C3CCN(C4CC4)CC3)CC2)n1 [Example 62, N-(Cyclopropylmethyl)-6-[4-(1-cyclopropylpiperidin-4-yl)-1,4-diazepan-1-yl]pyridine-2-carboxamide] | 500 to 1000 nM
19 | CC(C)N1CCC(N2CCCN(c3cccc(C(=O)NCC4CC4)n3)CC2)CC1 [Example 63, N-(Cyclopropylmethyl)-6-{4-[1-(propan-2-yl)piperidin-4-yl]-1,4-diazepan-1-yl}pyridine-2-carboxamide] | < 20 nM
20 | CC(C)(C)N1CCC(N2CCCN(c3cccc(C(=O)NCC4CC4)n3)CC2)CC1 [Example 64, 6-[4-(1-tert-Butylpiperidin-4-yl)-1,4-diazepan-1-yl]-N-(cyclopropylmethyl)pyridine-2-carboxamide] | 20 to 100 nM
21 | CCC(C)N1CCC(N2CCCN(c3cccc(C(=O)NCC4CC4)n3)CC2)CC1 (stereo not shown) [Example 65, 6-{4-[1-(Butan-2-yl)piperidin-4-yl]-1,4-diazepan-1-yl}-N-(cyclopropylmethyl)pyridine-2-carboxamide] | < 20 nM
22 | CCC(CC)N1CCC(N2CCCN(c3cccc(C(=O)NCC4CC4)n3)CC2)CC1 [Example 66, N-(Cyclopropylmethyl)-6-{4-[1-(pentan-3-yl)piperidin-4-yl]-1,4-diazepan-1-yl}pyridine-2-carboxamide] | 20 to 100 nM
23 | CC(CF)N1CCC(N2CCCN(c3cccc(C(=O)NCC4CC4)n3)CC2)CC1 (stereo not shown) [Example 67, N-(Cyclopropylmethyl)-6-{4-[1-(1-fluoropropan-2-yl)piperidin-4-yl]-1,4-diazepan-1-yl}pyridine-2-carboxamide] | 500 to 1000 nM
24 | CC(C(F)F)N1CCC(N2CCCN(c3cccc(C(=O)NCC4CC4)n3)CC2)CC1 (stereo not shown) [Example 68, N-(Cyclopropylmethyl)-6-{4-[1-(1,1-difluoropropan-2-yl)piperidin-4-yl]-1,4-diazepan-1-yl}pyridine-2-carboxamide] | 100 to 500 nM
25 | C[C@H](N1CCC(N2CCCN(c3cccc(C(=O)NCC4CC4)n3)CC2)CC1)C(F)(F)F [Example 69, N-(Cyclopropylmethyl)-6-(4-{1-[(2S)-1,1,1-trifluoropropan-2-yl]piperidin-4-yl}-1,4-diazepan-1-yl)pyridine-2-carboxamide] | 100 to 500 nM
26 | CC(CC(F)(F)F)N1CCC(N2CCCN(c3cccc(C(=O)NCC4CC4)n3)CC2)CC1 (stereo not shown) [Example 70, N-(Cyclopropylmethyl)-6-{4-[1-(4,4,4-trifluorobutan-2-yl)piperidin-4-yl]-1,4-diazepan-1-yl}pyridine-2-carboxamide] | 20 to 100 nM
27 | COCCN1CCC(N2CCCN(c3cccc(C(=O)NCC4CC4)n3)CC2)CC1 [Example 71, N-(Cyclopropylmethyl)-6-{4-[1-(2-methoxyethyl)piperidin-4-yl]-1,4-diazepan-1-yl}pyridine-2-carboxamide] | 500 to 1000 nM
28 | O=C(NCC1CC1)c1cccc(N2CCCN(C3CCN(C4CCCC4)CC3)CC2)n1 [Example 72, 6-[4-(1-Cyclopentylpiperidin-4-yl)-1,4-diazepan-1-yl]-N-(cyclopropylmethyl)pyridine-2-carboxamide] | 20 to 100 nM
29 | O=C(NCC1CC1)c1cccc(N2CCCN(C3CCN(C4CCCC4F)CC3)CC2)n1 (stereo not shown) [Example 73, N-(Cyclopropylmethyl)-6-{4-[1-(2-fluorocyclopentyl)piperidin-4-yl]-1,4-diazepan-1-yl}pyridine-2-carboxamide] | 20 to 100 nM
30 | C[C@H](c1ccc(F)cc1)N1CCC(N2CCCN(c3cccc(C(=O)NCC4CC4)n3)CC2)CC1 [Example 75, N-(Cyclopropylmethyl)-6-(4-{1-[(1R)-1-(4-fluorophenyl)ethyl]piperidin-4-yl}-1,4-diazepan-1-yl)pyridine-2-carboxamide] | 100 to 500 nM
31 | O=C(NCC1CC1)c1cccc(N2CCCN(C3CCN([C@@H]4CCc5ccccc54)CC3)CC2)n1 [Example 76, N-(Cyclopropylmethyl)-6-(4-{1-[(1R)-2,3-dihydro-1H-inden-1-yl]piperidin-4-yl}-1,4-diazepan-1-yl)pyridine-2-carboxamide] | 20 to 100 nM
